Data from patent publication US8835440B2, “Cyclic pyrimidin-4-carboxamides as CCR2 receptor antagonists for treatment of inflammation, asthma and COPD” (Boehringer Ingelheim International GmbH, priority 2008, dated 2014).

Target: T1, CCR2 (Homo sapiens, UniProt P41597)
T1 construct: Membranes were prepared from THP-1 cells; endogenous in cells; host or cells: THP-1 cells (membrane preparation)
T1 sequence (P41597 1-360 isoform P41597-2): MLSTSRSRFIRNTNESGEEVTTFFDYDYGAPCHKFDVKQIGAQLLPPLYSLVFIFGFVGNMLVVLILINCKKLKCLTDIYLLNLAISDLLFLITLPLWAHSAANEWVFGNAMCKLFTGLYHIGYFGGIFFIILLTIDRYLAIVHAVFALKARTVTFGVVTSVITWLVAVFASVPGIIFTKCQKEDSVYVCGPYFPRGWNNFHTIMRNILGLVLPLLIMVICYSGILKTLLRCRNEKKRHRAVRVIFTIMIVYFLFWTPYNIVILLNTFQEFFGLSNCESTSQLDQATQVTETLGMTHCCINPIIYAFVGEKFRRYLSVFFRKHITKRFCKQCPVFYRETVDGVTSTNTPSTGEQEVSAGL
Assay: CCR2 receptor membrane binding assay ([125I]MCP-1, THP-1 cell membranes, SPA beads)
Settings: for remaining activity at 10 µM: read-out: CCR2 % ctrl @ 10 μM; for Ki: dissociation constant hKi, [125I]MCP-1 binding to THP-1 membranes
In short: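 Human THP-1 monocytic cell membranes, pre-coupled to WGA-PVT SPA beads, were incubated with compound and [125I]MCP-1 (ca. 25000 cpm) in 25 mM HEPES pH 7.2, 5 mM MgCl2, 0.5 mM CaCl2, 0.2% BSA, at 1% DMSO final. Bound radioactivity was counted after 8 h, and Ki was obtained by iterative mass-action fitting.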

[1] = @ 10 μM test compound, THP-1 membranes

Compound	remaining activity at 10 µM [1] [%]	Ki [nM]	CCR2 % ctrl @ 10 μM (@ 10 μM test compound, THP-1 membranes, 10 µM) [% ctrl]
Cc1cc(CNc2ncnc(C(=O)N3CCC(N4CCCCC4)CC3)c2C)ccc1F [Example 135]	19	888	–
COc1ccc(CCNc2ncnc(C(=O)N3CCC(N4CCCCC4)CC3)c2C)cc1Cl [Example 136]	14	773	–
Cc1ccc(CNc2ncnc(C(=O)N3CCC(N4CCCCC4)CC3)c2C)cc1F [Example 137]	–	634	14
Cc1c(NCC2CCC(c3ccccc3)CC2)ncnc1C(=O)N1CCC(N2CCCCC2)CC1 (stereo not shown) [Example 138]	6	145	–
Cc1c(NCCc2cccc(Cl)c2)ncnc1C(=O)N1CCC(N2CCCCC2)CC1 [Example 139]	9	443	–
Cc1c(NCc2cccc(Cl)c2)ncnc1C(=O)N1CCC(N2CCCCC2)CC1 [Example 140]	16	692	–
Cc1c(NCCc2ccc(Cl)cc2)ncnc1C(=O)N1CCC(N2CCCCC2)CC1 [Example 141]	7	422	–
Cc1c(NCc2ccc(Cl)c(C(F)(F)F)c2)ncnc1C(=O)N1CCC(N2CCCCC2)CC1 [Example 142]	8	529	–
Cc1ccc(CCNc2ncnc(C(=O)N3CCC(N4CCCCC4)CC3)c2C)cc1C [Example 143]	8	422	–
Cc1c(NC[C@@H]2CCC[C@@H](c3ccccc3)C2)ncnc1C(=O)N1CCC(N2CCC(O)CC2)CC1 [Example 144]	7	91	–
Cc1c(NC[C@@H]2CCC[C@H](c3ccccc3)C2)ncnc1C(=O)N1CCC(N2CCC(O)CC2)CC1 [Example 145]	17	181	–
CCS(=O)(=O)N(C)C1CCN(C2CCN(C(=O)c3ncnc(NC[C@@H]4C[C@H]4c4ccccc4)c3C)CC2)CC1 [Example 147]	8	40	–
Cc1c(NCC2CCCc3ccccc32)ncnc1C(=O)N1CCC(N2CCC(N(C)S(C)(=O)=O)CC2)CC1 (stereo not shown) [Example 148]	4	119	–
Cc1c(NC[C@@H]2CCN(c3ccccc3)C2)ncnc1C(=O)N1CCC(N2CCC(N(C)S(C)(=O)=O)CC2)CC1 [Example 149]	10	41	–
Cc1c(NC[C@@H]2C[C@H]2c2ccccc2)ncnc1C(=O)N1CCC(N2CCC(N(C)S(C)(=O)=O)CC2)CC1 [Example 152]	7	44	–
Cc1c(NCCc2ccc(C(C)(C)C)cc2)ncnc1C(=O)N1CCC(N2CCC(N(C)S(C)(=O)=O)CC2)CC1 [Example 153]	1	27	–

Compound	remaining activity at 10 µM [1] [%]	Ki [nM]	CCR2 % ctrl @ 10 μM (@ 10 μM test compound, THP-1 membranes, 10 µM) [% ctrl]
Cc1c(NCC2CCCN(c3ccc(C#N)c(Cl)c3)C2)ncnc1C(=O)N1CCC(N2CCC(N(C)S(C)(=O)=O)CC2)CC1 (stereo not shown) [Example 154]	15	123	–
Cc1c(NCC2CCCN(c3ccccc3)C2)ncnc1C(=O)N1CCC(N2CCC(N(C)S(C)(=O)=O)CC2)CC1 (stereo not shown) [Example 155]	8	76	–
Cc1c(NC[C@H]2CCN(c3ccccc3)C2)ncnc1C(=O)N1CCC(N2CCC(N(C)S(C)(=O)=O)CC2)CC1 [Example 156]	8	18	–
Cc1c(NCc2cnc3ccccc3c2)ncnc1C(=O)N1CCC(N2CCC(N(C)S(C)(=O)=O)CC2)CC1 [Example 157]	23	1150	–
Cc1nc(NC[C@H]2CCN(c3ccccc3)C2)c(C)c(C(=O)N2CCC(N3CCC(N(C)S(C)(=O)=O)CC3)CC2)n1 [Example 159]	4	25	–
CNC(=O)C1CCN(C2CCN(C(=O)c3ncnc(NCC4CCCC(c5ccc(F)cc5)C4)c3C)CC2)CC1 (stereo not shown) [Example 159aa]	–	18	–
Cc1c(NCC2CCC(c3ccc(Cl)cc3)O2)ncnc1C(=O)N1CCC(N2CCC(N(C)S(C)(=O)=O)CC2)CC1 (stereo not shown) [Example 159ab]	–	27	–
Cc1c(NCC2CCOCC2)ncnc1C(=O)N1CCC(N2CCC(N(C)S(C)(=O)=O)CC2)CC1 [Example 159ac]	–	5940	–
Cc1c(NCC2CCC(C)C2)ncnc1C(=O)N1CCC(N2CCC(N(C)S(C)(=O)=O)CC2)CC1 (stereo not shown) [Example 159bb]	–	48	–
Cc1c(NCC2CCCOC2)ncnc1C(=O)N1CCC(N2CCC(N(C)S(C)(=O)=O)CC2)CC1 (stereo not shown) [Example 159bc]	–	3490	–
Cc1ccc(C2CCC(CNc3ncnc(C(=O)N4CCC(N5CCC(N(C)S(C)(=O)=O)CC5)CC4)c3C)O2)cc1 (stereo not shown) [Example 159cb]	–	39	–
COC1COCCC1NC1CCN(C(=O)c2ncnc(NCC3CCCCC3)c2C)CC1 (stereo not shown) [Example 159dc]	–	38	–
Cc1c(NCC2CCCCC2)ncnc1C(=O)N1CCC(N2CCC(N(C)S(C)(=O)=O)CC2)CC1 [Example 159e]	–	28	–
Cc1c(NCC2CC(c3ccccc3)CO2)ncnc1C(=O)N1CCC(N2CCC(N(C)S(C)(=O)=O)CC2)CC1 (stereo not shown) [Example 159eb]	–	72	–
COC1COCCC1NC1CCN(C(=O)c2ncnc(NC3Cc4ccccc4C3)c2C)CC1 (stereo not shown) [Example 159ec]	–	961	–

The next compounds have a lower Ki than those just listed; values first:

remaining activity at 10 µM [1] [%]	Ki [nM]	CCR2 % ctrl @ 10 μM (@ 10 μM test compound, THP-1 membranes, 10 µM) [% ctrl]	Compound
7	3	–	Cc1c(NC[C@H]2CCC[C@@H](c3ccccc3)C2)ncnc1C(=O)N1CCC(N2CCC(N(C)S(C)(=O)=O)CC2)CC1 [Example 146]
3	12	–	Cc1c(NC[C@H]2CCC[C@H](c3ccccc3)C2)ncnc1C(=O)N1CCC(N2CCC(N(C)S(C)(=O)=O)CC2)CC1 [Example 150]
7	14	–	Cc1c(NC[C@@H]2CCC[C@H](c3ccccc3)C2)ncnc1C(=O)N1CCC(N2CCC(N(C)S(C)(=O)=O)CC2)CC1 [Example 151]
0	6	–	Cc1c(NC[C@@H]2CCC[C@@H](c3ccccc3)C2)ncnc1C(=O)N1CCC(N2CCC(N(C)S(C)(=O)=O)CC2)CC1 [Example 158]
–	10	–	COc1nc(NCC2CCCC(c3ccccc3)C2)c(C)c(C(=O)N2CCC(N3CCC(N(C)S(C)(=O)=O)CC3)CC2)n1 (stereo not shown) [Example 159a]
–	7	–	COc1nc(NCc2ccc(C(C)(C)C)cc2)c(C)c(C(=O)N2CCC(N3CCC(N(C)S(C)(=O)=O)CC3)CC2)n1 [Example 159b]
–	11	–	Cc1c(NCC2CCCC(c3ccc(F)cc3)C2)ncnc1C(=O)N1CCC(N2CCC(NS(C)(=O)=O)CC2)CC1 (stereo not shown) [Example 159ba]
–	13	–	Cc1c(NCC2CCC(c3ccc(Cl)cc3)C2)ncnc1C(=O)N1CCC(N2CCC(N(C)S(C)(=O)=O)CC2)CC1 (stereo not shown) [Example 159c]
–	3	–	Cc1c(NCC2CCCC(c3ccc(Cl)cc3)C2)ncnc1C(=O)N1CCC(N2CCC(NS(C)(=O)=O)CC2)CC1 (stereo not shown) [Example 159ca]
–	10	–	Cc1nc(NC[C@@H]2CCC[C@H](c3ccc(C)o3)C2)c(C)c(C(=O)N2CCC(N3CCC(N(C)S(C)(=O)=O)CC3)CC2)n1 [Example 159cc]
–	15	–	Cc1c(NCC2CCC(c3ccccc3)C2)ncnc1C(=O)N1CCC(N2CCC(N(C)S(C)(=O)=O)CC2)CC1 (stereo not shown) [Example 159d]
–	5	–	Cc1c(NCC2CCCC(c3ccc(Cl)cc3)C2)ncnc1C(=O)N1CCC(N2CCC(N(C)S(C)(=O)=O)CC2)CC1 (stereo not shown) [Example 159da]
–	16	–	Cc1c(NCC2CCCC(c3cccc(F)c3)C2)ncnc1C(=O)N1CCC(N2CCC(N(C)S(C)(=O)=O)CC2)CC1 (stereo not shown) [Example 159db]
–	7	–	CNC(=O)C1CCN(C2CCN(C(=O)c3ncnc(NCC4CCCC(c5ccc(Cl)cc5)C4)c3C)CC2)CC1 (stereo not shown) [Example 159ea]
